The results in this text go back to ChEMBL document CHEMBL4725449, “Brain Penetrable Inhibitors of Ceramide Galactosyltransferase for the Treatment of Lysosomal Storage Disorders” (ACS Med Chem Lett, 2020).

The target in data set [1] is T1, 2-hydroxyacylsphingosine 1-beta-galactosyltransferase (Homo sapiens, UniProt Q16880).
T1 sequence (Q16880 whole entry): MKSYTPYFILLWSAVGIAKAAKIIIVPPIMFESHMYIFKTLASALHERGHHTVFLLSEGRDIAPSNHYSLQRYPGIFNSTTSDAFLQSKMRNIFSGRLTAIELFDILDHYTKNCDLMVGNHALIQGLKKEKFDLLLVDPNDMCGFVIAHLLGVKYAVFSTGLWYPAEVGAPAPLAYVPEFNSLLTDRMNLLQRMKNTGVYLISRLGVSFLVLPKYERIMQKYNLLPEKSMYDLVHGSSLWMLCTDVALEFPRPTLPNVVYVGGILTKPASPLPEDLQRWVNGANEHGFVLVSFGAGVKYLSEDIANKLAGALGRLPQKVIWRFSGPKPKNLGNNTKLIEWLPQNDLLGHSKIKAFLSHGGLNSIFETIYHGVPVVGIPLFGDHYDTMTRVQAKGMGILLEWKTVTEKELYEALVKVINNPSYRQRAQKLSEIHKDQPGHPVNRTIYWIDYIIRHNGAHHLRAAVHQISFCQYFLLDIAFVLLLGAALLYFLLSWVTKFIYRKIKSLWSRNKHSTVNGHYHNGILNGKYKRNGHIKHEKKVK
Kind of data set: Inhibition of UGT8 in human OE19 cells assessed as redcution in GalCer accumulation measured after 72 hrs by LC-MS/MS analysis. It counts as cell-based.

Data set [2] addresses T2, UDP-glucuronosyltransferase 1A6 (Homo sapiens, UniProt P19224).
T2 sequence (P19224 whole entry): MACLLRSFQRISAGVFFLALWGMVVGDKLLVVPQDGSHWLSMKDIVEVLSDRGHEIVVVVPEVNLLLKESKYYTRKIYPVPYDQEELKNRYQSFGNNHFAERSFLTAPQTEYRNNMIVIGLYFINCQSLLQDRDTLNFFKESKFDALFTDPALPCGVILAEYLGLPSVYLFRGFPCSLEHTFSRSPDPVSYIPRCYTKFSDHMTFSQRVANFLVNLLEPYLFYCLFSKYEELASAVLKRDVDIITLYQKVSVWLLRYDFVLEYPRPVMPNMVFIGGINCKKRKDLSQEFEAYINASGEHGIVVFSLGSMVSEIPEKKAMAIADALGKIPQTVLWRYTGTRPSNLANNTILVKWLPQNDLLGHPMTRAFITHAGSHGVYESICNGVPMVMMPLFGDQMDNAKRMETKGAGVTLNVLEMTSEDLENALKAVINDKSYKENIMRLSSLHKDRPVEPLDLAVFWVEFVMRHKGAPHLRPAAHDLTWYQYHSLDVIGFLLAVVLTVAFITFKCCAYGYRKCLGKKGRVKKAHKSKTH
In words: Inhibition of UGT1A6 (unknown origin). It counts as ADME.

The target in data set [3] is T3, UDP-glucuronosyltransferase 2B7 (Homo sapiens, UniProt P16662).
T3 sequence (P16662 whole entry): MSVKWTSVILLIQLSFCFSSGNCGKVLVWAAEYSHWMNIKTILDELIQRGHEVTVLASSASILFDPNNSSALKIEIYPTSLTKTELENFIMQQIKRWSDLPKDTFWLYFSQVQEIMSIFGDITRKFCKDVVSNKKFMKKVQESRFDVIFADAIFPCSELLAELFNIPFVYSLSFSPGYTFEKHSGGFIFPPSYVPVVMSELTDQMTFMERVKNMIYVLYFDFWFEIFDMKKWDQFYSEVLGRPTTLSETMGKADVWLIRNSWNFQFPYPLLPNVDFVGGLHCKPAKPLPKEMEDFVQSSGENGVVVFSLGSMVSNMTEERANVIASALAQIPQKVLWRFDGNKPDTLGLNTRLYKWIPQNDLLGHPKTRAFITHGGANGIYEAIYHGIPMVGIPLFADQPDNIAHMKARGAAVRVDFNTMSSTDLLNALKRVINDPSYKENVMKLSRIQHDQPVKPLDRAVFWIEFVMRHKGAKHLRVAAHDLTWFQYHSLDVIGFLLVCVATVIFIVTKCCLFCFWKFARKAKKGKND
Kind of data set: Inhibition of UGT2B7 (unknown origin). It counts as ADME.

Data set [4] deals with T4, UDP-glucuronosyltransferase 2B15 (Homo sapiens, UniProt P54855).
T4 sequence (P54855 whole entry): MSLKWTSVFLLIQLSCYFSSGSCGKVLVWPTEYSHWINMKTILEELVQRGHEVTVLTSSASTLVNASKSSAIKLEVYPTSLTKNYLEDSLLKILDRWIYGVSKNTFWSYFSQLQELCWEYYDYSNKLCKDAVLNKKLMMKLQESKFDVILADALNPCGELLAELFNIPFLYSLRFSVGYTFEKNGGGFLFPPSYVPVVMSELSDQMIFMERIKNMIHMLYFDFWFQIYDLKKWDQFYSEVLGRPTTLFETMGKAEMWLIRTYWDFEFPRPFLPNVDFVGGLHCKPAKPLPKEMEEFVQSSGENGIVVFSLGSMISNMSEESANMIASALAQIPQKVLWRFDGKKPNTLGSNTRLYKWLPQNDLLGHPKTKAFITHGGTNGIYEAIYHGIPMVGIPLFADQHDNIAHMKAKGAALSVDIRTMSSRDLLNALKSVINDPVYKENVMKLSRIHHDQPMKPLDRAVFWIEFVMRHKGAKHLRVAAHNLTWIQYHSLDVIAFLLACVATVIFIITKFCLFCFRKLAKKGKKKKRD
In words: Inhibition of UGT2B15 (unknown origin). It counts as ADME.

The nature of data set [5]: Half life in Sprague-Dawley rat at 1 mg/kg, iv. As to conditions: in vivo. It counts as ADME, organism-based.
Data set [6] can be described thus: AUC (0 to last) in C57BL/6 mouse at 3 mg/kg, po. The data set is classed as ADME, organism-based. The arrangement: time 0 - last, route oral, dose 3 mg/kg. The conditions noted are these: in vivo.
The nature of data set [7]: Tmax in C57BL/6 mouse at 3 mg/kg, po. It counts as ADME, organism-based. The conditions noted are these: in vivo.
A short description of data set [8]: Volume of distribution at steady state in Beagle dog at 1 mg/kg, iv. As to conditions: in vivo, read-out: Vdss. It counts as ADME, organism-based, Canis lupus familiaris.
Data set [9] in a line: In vivo inhibition of SFT de novo synthesis in adult C57BL/6 mouse kidney assessed as reduction in [13C] galactose incorporation into SFT at 1 mg/kg, po via gavage treated with compound for 1 hr prior to intraperitoneal injection of [13C] galactose measured after 5 hrs of compound administration relative to control. It counts as functional.
Data set [10] is described as follows: In vivo inhibition of SFT de novo synthesis in adult C57BL/6 mouse kidney assessed as reduction in [13C] galactose incorporation into SFT at 10 mg/kg, po via gavage treated with compound for 1 hr prior to intraperitoneal injection of [13C] galactose measured after 5 hrs of compound administration relative to control. The data set is classed as functional.
Data set [11] can be described thus: In vivo inhibition of GalCer de novo synthesis in PN14 to PN21 days C57BL/6 mouse brain assessed as reduction in [13C] galactose incorporation into GalCer at 10 mg/kg, po bid for 2 days and single dose at day 3 treated 1 hr prior to intraperitoneal injection of [13C] galactose measured after 5 hrs of last dose relative to control. The data set is classed as functional. As to conditions: C57BL/6, 72 h, time 3 day.

The nature of data set [12]: In vivo inhibition of SFT de novo synthesis in PN14 to PN21 days C57BL/6 mouse brain assessed as reduction in [13C] galactose incorporation into SFT at 10 mg/kg, po bid for 2 days and single dose at day 3 treated 1 hr prior to intraperitoneal injection of [13C] galactose measured after 5 hrs of last dose relative to control. The data set is classed as functional. The conditions noted are these: C57BL/6, 72 h, time 3 day.

The structures appear in SMILES notation. Some results are limits rather than exact numbers.

In general, IC50 refers to the concentration that gives 50% inhibition. One may read the half-life as the time needed for the level to fall by half in the phase considered. High values mean slow decline, low ones rapid decline. As a reminder, the AUC(0-t) is exposure summed from dosing to a finite time, without extrapolation to infinity. A low value points to low exposure. One may read the Tmax as the time from dosing to the highest level. The inhibition in vivo is the share of the control response that was lost under treatment. As for `CNC(=O)c1csc2c(C(F)(F)F)cc(N3CCC(OC(=O)N[C@@H](C)COC(F)(F)F)CC3)nc12`, the IC50 in [1] is 0.0002 µM; in data set [2] it was more than 10 µM; in [3], more than 10 µM; in [4], more than 10 µM. In data set [5], this compound showed a half-life of 4.3 h. The same compound yielded an AUC(0-t) in [6] of 784 ng·h/mL. For the same compound, the Tmax in [7] amounted to 0.5 h. In data set [8], the Vd was found to be 3.32 L/kg. In addition, in data set [9], the inhibition in vivo at 1 mg/kg was 50%. Moreover, the inhibition in vivo at 10 mg/kg in [10] is 95%; in [11], 94%; in [12], 97%.
